From patent US20100041089A1, “IMPROVED METHOD FOR DETECTING CHEMICAL […]” (priority 2006, published 2010)

System: yeast genes (expressed mRNA)
Assay: DNA chip measurement of expressed mRNA of yeast genes after culture with a toxic chemical substance
Type: cell-based, Saccharomyces cerevisiae S288C
Procedure, shortened: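 Fluorescence ratio, treated over untreated, read by chip scanner; ratio of two or more counted significant. Cells: S288C yeast, YPD, 25° C, chemical added at log phase for 2 h at growth-inhibiting, sublethal level. Cy3/Cy5-labeled cDNA from oligo-dT-purified mRNA.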

CN(C)C(=S)SSC(=S)N(C)C [(10), Tetramethylthiuram disulfide]
The level of expressed mRNA in the presence of chemical substance/The level of expressed mRNA in the absence of chemical substance (yeast gene YAL053W, cultured two hours with substance): 0.9
The level of expressed mRNA in the presence of chemical substance/The level of expressed mRNA in the absence of chemical substance (yeast gene YAR028W, cultured two hours with substance): 0.9
The level of expressed mRNA in the presence of chemical substance/The level of expressed mRNA in the absence of chemical substance (yeast gene YBL043W): 14.7
The level of expressed mRNA in the presence of chemical substance/The level of expressed mRNA in the absence of chemical substance (yeast gene YBL048W, cultured two hours with substance): 4.4
The level of expressed mRNA in the presence of chemical substance/The level of expressed mRNA in the absence of chemical substance (yeast gene YBL078C): 15.2
The level of expressed mRNA in the presence of chemical substance/The level of expressed mRNA in the absence of chemical substance (yeast gene YBL107C, cultured two hours with substance): 3.1
The level of expressed mRNA in the presence of chemical substance/The level of expressed mRNA in the absence of chemical substance (yeast gene YBR008C (detoxification protein gene)): 21.1
The level of expressed mRNA in the presence of chemical substance/The level of expressed mRNA in the absence of chemical substance (yeast gene YBR008C (transport facilitation protein gene)): 21.1
The level of expressed mRNA in the presence of chemical substance/The level of expressed mRNA in the absence of chemical substance (yeast gene YBR046C): 6.2
The level of expressed mRNA in the presence of chemical substance/The level of expressed mRNA in the absence of chemical substance (yeast gene YBR072W (stress protein genes)): 43.4
The level of expressed mRNA in the presence of chemical substance/The level of expressed mRNA in the absence of chemical substance (yeast gene YBR099C, cultured two hours with substance): 12.9
The level of expressed mRNA in the presence of chemical substance/The level of expressed mRNA in the absence of chemical substance (yeast gene YCL027W): 16.3
The level of expressed mRNA in the presence of chemical substance/The level of expressed mRNA in the absence of chemical substance (yeast gene YCL069W (detoxification protein gene)): 6.9
The level of expressed mRNA in the presence of chemical substance/The level of expressed mRNA in the absence of chemical substance (yeast gene YCL069W (transport facilitation protein gene)): 6.9
The level of expressed mRNA in the presence of chemical substance/The level of expressed mRNA in the absence of chemical substance (yeast gene YCR102C, cultured two hours with substance): 61.5
The level of expressed mRNA in the presence of chemical substance/The level of expressed mRNA in the absence of chemical substance (yeast gene YDL021W, cultured for two hours with substance): 7.4
The level of expressed mRNA in the presence of chemical substance/The level of expressed mRNA in the absence of chemical substance (yeast gene YDL059C, DNA repair protein genes, cultured two hours with substance): 7.8
The level of expressed mRNA in the presence of chemical substance/The level of expressed mRNA in the absence of chemical substance (yeast gene YDL072C, cultured two hours with substance): 1.5
The level of expressed mRNA in the presence of chemical substance/The level of expressed mRNA in the absence of chemical substance (yeast gene YDL204W, cultured two hours with substance): 2.0
The level of expressed mRNA in the presence of chemical substance/The level of expressed mRNA in the absence of chemical substance (yeast gene YDL218W, cultured two hours with substance): 12.6
The level of expressed mRNA in the presence of chemical substance/The level of expressed mRNA in the absence of chemical substance (yeast gene YDL222C, cultured two hours with substance): 1.0
The level of expressed mRNA in the presence of chemical substance/The level of expressed mRNA in the absence of chemical substance (yeast gene YDL243C): 29.6
The level of expressed mRNA in the presence of chemical substance/The level of expressed mRNA in the absence of chemical substance (yeast gene YDL243C, cultured for two hours with substance): 29.6
The level of expressed mRNA in the presence of chemical substance/The level of expressed mRNA in the absence of chemical substance (yeast gene YDR031W, cultured two hours with substance): 2.7
The level of expressed mRNA in the presence of chemical substance/The level of expressed mRNA in the absence of chemical substance (yeast gene YDR056C, cultured two hours with substance): 2.3
The level of expressed mRNA in the presence of chemical substance/The level of expressed mRNA in the absence of chemical substance (yeast gene YDR069C): 4.5
The level of expressed mRNA in the presence of chemical substance/The level of expressed mRNA in the absence of chemical substance (yeast gene YDR210W, cultured two hours with substance): 1.0
The level of expressed mRNA in the presence of chemical substance/The level of expressed mRNA in the absence of chemical substance (yeast gene YDR258C (stress protein genes)): 13.3
The level of expressed mRNA in the presence of chemical substance/The level of expressed mRNA in the absence of chemical substance (yeast gene YDR258C, mitochondria-located protein gene): 13.3
The level of expressed mRNA in the presence of chemical substance/The level of expressed mRNA in the absence of chemical substance (yeast gene YDR330W, cultured two hours with substance): 2.6
The level of expressed mRNA in the presence of chemical substance/The level of expressed mRNA in the absence of chemical substance (yeast gene YDR353W): 5.1
The level of expressed mRNA in the presence of chemical substance/The level of expressed mRNA in the absence of chemical substance (yeast gene YDR391C, cultured two hours with substance): 2.7
The level of expressed mRNA in the presence of chemical substance/The level of expressed mRNA in the absence of chemical substance (yeast gene YDR411C, cultured two hours with substance): 1.0
The level of expressed mRNA in the presence of chemical substance/The level of expressed mRNA in the absence of chemical substance (yeast gene YDR486C, cultured two hours with substance): 5.8
The level of expressed mRNA in the presence of chemical substance/The level of expressed mRNA in the absence of chemical substance (yeast gene YDR511W, cultured two hours with substance): 2.2
The level of expressed mRNA in the presence of chemical substance/The level of expressed mRNA in the absence of chemical substance (yeast gene YDR533C, cultured two hours with substance): 12.7
The level of expressed mRNA in the presence of chemical substance/The level of expressed mRNA in the absence of chemical substance (yeast gene YDR545W, cultured two hours with substance): 0.7
The level of expressed mRNA in the presence of chemical substance/The level of expressed mRNA in the absence of chemical substance (yeast gene YEL001C, cultured two hours with substance): 1.2
The level of expressed mRNA in the presence of chemical substance/The level of expressed mRNA in the absence of chemical substance (yeast gene YER004W, cultured two hours with substance): 2.9
The level of expressed mRNA in the presence of chemical substance/The level of expressed mRNA in the absence of chemical substance (yeast gene YER035W, cultured two hours with substance): 1.4
The level of expressed mRNA in the presence of chemical substance/The level of expressed mRNA in the absence of chemical substance (yeast gene YER038C, cultured two hours with substance): 2.5
The level of expressed mRNA in the presence of chemical substance/The level of expressed mRNA in the absence of chemical substance (yeast gene YER069W): 10.4
The level of expressed mRNA in the presence of chemical substance/The level of expressed mRNA in the absence of chemical substance (yeast gene YER069W, mitochondria-located protein gene): 10.4
The level of expressed mRNA in the presence of chemical substance/The level of expressed mRNA in the absence of chemical substance (yeast gene YER079W, cultured two hours with substance): 3.4
The level of expressed mRNA in the presence of chemical substance/The level of expressed mRNA in the absence of chemical substance (yeast gene YER106W, cultured two hours with substance): 1.8
The level of expressed mRNA in the presence of chemical substance/The level of expressed mRNA in the absence of chemical substance (yeast gene YER158C, cultured two hours with substance): 1.6
The level of expressed mRNA in the presence of chemical substance/The level of expressed mRNA in the absence of chemical substance (yeast gene YER163C, cultured two hours with substance): 3.4
The level of expressed mRNA in the presence of chemical substance/The level of expressed mRNA in the absence of chemical substance (yeast gene YER175C, cultured two hours with substance): 11.5
The level of expressed mRNA in the presence of chemical substance/The level of expressed mRNA in the absence of chemical substance (yeast gene YFL006W, cultured two hours with substance): 1.7
